Assay [1] addresses T1, Lysine-specific demethylase 4B (Homo sapiens, UniProt O94953).
T1 sequence (O94953 whole entry): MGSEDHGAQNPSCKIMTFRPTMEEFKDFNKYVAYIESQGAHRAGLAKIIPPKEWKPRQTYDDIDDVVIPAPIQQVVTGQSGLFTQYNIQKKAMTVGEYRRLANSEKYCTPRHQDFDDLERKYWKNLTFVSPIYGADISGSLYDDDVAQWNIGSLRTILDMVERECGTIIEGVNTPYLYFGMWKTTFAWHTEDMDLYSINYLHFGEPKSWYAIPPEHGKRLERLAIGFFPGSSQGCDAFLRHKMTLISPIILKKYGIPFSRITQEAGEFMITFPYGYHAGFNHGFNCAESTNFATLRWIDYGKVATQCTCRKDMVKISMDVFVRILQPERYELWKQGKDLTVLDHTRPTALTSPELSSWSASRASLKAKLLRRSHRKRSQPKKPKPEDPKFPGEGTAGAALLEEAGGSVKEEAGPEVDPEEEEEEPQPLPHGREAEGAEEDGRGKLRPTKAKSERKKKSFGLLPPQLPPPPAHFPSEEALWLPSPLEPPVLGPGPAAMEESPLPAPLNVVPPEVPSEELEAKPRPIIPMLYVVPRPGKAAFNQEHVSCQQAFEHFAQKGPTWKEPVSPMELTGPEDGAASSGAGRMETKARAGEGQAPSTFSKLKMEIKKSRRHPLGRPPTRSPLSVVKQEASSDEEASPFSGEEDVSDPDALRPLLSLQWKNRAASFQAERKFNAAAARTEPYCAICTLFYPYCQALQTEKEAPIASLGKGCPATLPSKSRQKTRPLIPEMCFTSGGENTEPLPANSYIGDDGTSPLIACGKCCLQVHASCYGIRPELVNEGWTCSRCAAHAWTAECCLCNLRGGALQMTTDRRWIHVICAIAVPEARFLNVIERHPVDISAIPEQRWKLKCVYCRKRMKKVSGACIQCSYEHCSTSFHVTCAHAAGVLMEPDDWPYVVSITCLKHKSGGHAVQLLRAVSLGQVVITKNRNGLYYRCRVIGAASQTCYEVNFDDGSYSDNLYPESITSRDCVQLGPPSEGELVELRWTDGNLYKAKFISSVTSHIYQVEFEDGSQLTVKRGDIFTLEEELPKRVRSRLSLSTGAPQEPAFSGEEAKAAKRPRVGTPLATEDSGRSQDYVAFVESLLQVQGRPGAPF
Briefly: Inhibition of KDM4B (2 to 500 residues)(unknown origin) by Alphalisa assay. (In general: Alpha assays give light when donor and acceptor beads are brought close together.)

In assay [2] the target is Lysine-specific demethylase 5B (Homo sapiens, UniProt Q9UGL1). In words: Inhibition of KDM5B (1 to 809 residues)(unknown origin) by Alphalisa assay.
The target in assay [3] is Histone lysine demethylase PHF8 (Homo sapiens, UniProt Q9UPP1). Briefly: Inhibition of PHF8 (1 to 1024 residues)(unknown origin) by Alphalisa assay.
In assay [4] the target is Lysine-specific demethylase 6A (Homo sapiens, UniProt O15550). Briefly: Inhibition of KDM6A (919 to 1401 residues)(unknown origin) by Alphalisa assay.
Assay [5] deals with Lysine-specific demethylase 3B (Homo sapiens, UniProt Q7LBC6). Briefly: Inhibition of KDM3B (842 to 1761 residues)(unknown origin) by Alphalisa assay.
In assay [6] the target is T2, Lysine-specific demethylase 4A (Homo sapiens, UniProt O75164).
T2 sequence (O75164 whole entry): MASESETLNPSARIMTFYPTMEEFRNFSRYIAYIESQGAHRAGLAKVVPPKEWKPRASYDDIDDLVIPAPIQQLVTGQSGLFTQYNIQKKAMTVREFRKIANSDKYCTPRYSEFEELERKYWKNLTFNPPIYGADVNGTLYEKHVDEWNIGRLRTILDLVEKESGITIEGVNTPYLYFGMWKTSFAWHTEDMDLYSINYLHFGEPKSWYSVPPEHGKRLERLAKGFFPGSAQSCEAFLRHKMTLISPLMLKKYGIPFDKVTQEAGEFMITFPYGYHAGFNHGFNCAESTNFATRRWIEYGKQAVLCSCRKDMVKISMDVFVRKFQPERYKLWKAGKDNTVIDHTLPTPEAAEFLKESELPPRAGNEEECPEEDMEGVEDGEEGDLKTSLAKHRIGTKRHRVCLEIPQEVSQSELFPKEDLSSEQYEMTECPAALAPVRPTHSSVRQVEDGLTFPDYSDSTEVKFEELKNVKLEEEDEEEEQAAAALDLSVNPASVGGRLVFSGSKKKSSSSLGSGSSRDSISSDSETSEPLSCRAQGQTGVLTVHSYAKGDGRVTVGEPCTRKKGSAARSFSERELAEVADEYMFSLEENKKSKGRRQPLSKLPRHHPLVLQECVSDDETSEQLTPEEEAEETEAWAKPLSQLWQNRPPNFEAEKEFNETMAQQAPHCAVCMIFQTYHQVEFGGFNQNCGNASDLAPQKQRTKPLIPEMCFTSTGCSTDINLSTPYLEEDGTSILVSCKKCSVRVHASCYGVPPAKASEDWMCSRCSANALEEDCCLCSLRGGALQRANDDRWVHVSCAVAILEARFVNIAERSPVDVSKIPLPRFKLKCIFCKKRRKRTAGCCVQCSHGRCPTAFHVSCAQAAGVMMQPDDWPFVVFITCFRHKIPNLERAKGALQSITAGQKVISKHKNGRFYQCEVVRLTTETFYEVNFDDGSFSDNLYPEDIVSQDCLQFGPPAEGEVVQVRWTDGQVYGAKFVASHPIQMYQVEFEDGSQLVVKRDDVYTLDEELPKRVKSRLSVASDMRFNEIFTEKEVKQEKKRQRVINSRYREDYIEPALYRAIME
Briefly: Inhibition of KDM4A (1 to 350 residues)(unknown origin) by Alphalisa assay.

pIC50: −log10 of the molar value.

Histone lysine demethylase PHF8, sequence (Q9UPP1 whole entry, the tested form may be a part): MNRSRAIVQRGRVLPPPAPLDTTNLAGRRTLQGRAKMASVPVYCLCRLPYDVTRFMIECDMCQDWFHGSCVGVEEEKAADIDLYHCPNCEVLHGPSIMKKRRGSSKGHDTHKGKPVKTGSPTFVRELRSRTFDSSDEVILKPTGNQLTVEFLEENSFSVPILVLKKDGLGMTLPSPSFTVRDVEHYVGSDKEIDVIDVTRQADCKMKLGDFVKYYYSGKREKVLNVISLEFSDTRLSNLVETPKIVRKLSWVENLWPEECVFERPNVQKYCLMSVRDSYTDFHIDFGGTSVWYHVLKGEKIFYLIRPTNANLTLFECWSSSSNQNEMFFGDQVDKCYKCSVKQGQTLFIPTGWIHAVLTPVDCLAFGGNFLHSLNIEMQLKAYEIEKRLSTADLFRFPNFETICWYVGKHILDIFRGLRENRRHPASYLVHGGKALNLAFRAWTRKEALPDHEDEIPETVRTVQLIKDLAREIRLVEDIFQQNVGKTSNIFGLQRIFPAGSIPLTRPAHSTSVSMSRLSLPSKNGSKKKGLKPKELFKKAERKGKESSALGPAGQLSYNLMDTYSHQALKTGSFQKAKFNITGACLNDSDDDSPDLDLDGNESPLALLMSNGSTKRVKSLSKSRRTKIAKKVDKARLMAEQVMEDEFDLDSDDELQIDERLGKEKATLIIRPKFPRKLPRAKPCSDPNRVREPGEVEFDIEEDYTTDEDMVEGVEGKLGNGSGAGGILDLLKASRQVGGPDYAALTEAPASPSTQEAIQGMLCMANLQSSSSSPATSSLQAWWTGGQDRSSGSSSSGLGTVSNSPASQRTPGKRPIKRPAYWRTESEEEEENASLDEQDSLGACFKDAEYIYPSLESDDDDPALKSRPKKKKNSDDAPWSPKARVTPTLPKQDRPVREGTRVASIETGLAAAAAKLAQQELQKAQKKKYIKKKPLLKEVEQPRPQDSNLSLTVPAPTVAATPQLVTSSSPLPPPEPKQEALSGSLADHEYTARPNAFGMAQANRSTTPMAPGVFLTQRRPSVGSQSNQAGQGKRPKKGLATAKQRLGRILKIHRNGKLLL
Lysine-specific demethylase 5B, sequence (Q9UGL1 whole entry, the tested form may be a part): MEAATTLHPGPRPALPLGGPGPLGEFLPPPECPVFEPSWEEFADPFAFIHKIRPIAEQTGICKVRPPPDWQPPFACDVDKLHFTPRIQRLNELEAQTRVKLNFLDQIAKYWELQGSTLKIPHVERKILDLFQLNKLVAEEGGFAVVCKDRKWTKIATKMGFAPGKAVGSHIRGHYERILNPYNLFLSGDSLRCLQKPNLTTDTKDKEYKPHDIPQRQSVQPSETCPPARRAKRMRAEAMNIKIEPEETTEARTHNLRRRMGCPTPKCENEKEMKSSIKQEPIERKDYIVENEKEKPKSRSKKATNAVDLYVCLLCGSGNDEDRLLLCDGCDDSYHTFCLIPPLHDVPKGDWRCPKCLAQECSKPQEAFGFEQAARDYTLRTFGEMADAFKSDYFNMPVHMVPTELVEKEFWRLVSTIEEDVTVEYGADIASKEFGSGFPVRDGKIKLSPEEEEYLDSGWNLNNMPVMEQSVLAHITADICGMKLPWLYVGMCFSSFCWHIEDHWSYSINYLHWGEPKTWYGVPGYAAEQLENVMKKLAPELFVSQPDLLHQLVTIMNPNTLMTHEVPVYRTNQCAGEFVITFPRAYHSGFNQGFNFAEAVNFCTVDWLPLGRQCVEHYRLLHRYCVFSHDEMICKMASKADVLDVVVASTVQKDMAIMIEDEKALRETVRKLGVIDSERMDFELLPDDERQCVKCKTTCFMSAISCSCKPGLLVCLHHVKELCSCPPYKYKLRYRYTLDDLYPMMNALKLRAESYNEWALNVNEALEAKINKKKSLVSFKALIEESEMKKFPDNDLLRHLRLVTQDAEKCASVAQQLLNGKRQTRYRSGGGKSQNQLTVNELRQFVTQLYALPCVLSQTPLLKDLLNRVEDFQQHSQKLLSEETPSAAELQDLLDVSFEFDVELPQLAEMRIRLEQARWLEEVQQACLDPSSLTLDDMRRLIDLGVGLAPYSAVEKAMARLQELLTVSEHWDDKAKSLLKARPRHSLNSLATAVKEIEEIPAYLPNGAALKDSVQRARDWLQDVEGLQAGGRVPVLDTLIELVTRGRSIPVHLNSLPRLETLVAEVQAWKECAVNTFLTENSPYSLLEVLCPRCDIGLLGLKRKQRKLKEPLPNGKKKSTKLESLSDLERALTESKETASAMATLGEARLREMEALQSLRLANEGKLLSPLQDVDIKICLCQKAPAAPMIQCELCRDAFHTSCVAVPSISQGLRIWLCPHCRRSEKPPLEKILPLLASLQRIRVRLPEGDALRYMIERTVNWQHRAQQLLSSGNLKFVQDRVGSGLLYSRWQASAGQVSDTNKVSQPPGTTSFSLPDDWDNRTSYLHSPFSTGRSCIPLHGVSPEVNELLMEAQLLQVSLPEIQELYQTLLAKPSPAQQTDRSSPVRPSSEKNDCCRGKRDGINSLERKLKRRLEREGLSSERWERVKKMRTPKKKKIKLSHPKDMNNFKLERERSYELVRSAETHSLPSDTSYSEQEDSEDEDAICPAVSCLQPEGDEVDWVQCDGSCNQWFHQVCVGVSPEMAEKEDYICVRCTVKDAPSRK
Lysine-specific demethylase 3B, sequence (Q7LBC6 whole entry, the tested form may be a part): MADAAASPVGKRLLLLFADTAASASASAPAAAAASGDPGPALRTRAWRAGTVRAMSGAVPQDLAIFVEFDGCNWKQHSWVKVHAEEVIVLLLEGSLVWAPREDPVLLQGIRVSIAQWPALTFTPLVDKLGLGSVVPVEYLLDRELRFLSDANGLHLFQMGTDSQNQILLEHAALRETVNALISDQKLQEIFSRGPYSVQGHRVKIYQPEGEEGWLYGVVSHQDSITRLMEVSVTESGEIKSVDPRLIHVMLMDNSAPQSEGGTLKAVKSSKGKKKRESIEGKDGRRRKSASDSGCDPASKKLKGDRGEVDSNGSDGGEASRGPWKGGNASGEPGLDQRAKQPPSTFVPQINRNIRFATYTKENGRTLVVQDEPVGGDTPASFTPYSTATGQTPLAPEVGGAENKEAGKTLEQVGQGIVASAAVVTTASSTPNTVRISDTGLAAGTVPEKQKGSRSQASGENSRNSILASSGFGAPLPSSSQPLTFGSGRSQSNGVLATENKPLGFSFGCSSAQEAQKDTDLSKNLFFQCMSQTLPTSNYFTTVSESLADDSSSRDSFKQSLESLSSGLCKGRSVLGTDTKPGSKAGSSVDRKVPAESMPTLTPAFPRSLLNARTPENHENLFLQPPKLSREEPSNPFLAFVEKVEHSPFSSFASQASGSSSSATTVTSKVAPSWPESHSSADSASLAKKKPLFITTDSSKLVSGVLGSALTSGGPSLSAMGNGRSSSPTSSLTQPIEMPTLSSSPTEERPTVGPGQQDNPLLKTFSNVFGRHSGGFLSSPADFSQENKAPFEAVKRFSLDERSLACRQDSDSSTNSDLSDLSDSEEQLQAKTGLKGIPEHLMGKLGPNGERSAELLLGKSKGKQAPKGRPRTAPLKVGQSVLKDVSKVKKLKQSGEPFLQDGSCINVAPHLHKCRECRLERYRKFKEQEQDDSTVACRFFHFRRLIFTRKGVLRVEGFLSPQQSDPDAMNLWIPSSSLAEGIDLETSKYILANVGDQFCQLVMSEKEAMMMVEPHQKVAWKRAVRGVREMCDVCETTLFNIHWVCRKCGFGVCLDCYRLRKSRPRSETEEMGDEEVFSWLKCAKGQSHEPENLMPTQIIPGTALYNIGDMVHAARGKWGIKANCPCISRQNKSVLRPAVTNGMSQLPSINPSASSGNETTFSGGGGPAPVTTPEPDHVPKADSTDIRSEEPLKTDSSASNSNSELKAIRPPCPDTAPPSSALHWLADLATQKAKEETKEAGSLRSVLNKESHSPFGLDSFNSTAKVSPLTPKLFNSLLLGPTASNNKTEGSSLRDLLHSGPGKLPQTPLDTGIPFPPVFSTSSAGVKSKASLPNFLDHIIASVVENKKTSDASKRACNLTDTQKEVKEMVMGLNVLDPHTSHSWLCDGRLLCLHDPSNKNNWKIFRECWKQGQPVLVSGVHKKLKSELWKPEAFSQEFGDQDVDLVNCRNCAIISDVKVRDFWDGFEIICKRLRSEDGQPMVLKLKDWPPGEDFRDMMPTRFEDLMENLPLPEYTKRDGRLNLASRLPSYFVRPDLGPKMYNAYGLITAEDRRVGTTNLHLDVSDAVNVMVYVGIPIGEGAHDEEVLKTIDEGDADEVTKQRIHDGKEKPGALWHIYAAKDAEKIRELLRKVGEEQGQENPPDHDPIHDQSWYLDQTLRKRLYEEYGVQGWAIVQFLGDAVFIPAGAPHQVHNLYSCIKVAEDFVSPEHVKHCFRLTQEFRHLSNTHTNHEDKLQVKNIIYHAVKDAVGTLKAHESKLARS

In the case of `CCOC(=O)CCNc1cc(N2CCc3ccccc3CC2)nc(-c2ccccn2)n1`, the pIC50 (usually the IC50 on a negative log10 scale, so that one unit is a factor of ten) is 5.42 in assay [1]; 5.01 in assay [2]; 5.38 in assay [3]; 5.18 in assay [4]; 5.16 in assay [5]; 5.12 in assay [6].
Regarding `O=C(O)CCNc1cc(N2CCc3ccccc3CC2)nc(-c2ccccn2)n1`, the pIC50 in assay [1] was 4.14; in assay [2], 6.77; in assay [3] it was 4.55; in assay [4], 7.28; in assay [5], less than 4.12; in assay [6] it was less than 4.30.

Source of the values: ChEMBL document CHEMBL5647690, “Inhibition of demethylases by GSK-J1/J4” (Nature, 2014).
